Assay results reported in US20260317324A1, “BIFUNCTIONAL COMPOUNDS FOR DEGRADING BRAF VIA UBIQUITIN PROTEOSOME PATHWAY” (Nurix Therapeutics, Inc., priority 2023, published 2026).

Assays:
Format in all cases: cell-based
BRAF G469A = biological target: T1, BRAF G469A (Homo sapiens, UniProt P15056, G469A); experiment: BRAF HiBiT degradation assay, C-terminal HiBiT-tagged BRAF G469A overexpressed in HCT-116 BRAF−/− cells (clone 34), Nano-Glo HiBiT Lytic assay
T1 construct: Horizon Discovery (HCT-116 BRAF−/− cells); host or cells: HCT-116 BRAF−/− cells, clone 34, lentiviral transduction
Summary of the method: (§1)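 HCT-116 BRAF−/− clones stably overexpressing C-terminal HiBiT-tagged mutant BRAF were seeded 24 h before treatment with an 11-point half-log series from 1 μM to 0.01 nM (0.2% DMSO final). Remaining protein was read by HiBiT lytic luminescence, with DMSO and wildtype-cell controls. DC50 was taken as the fitted concentration at 50% remaining protein; observed Dmax is reported relative to DMSO.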

BRAF D594G = biological target: T2, BRAF D594G (Homo sapiens, UniProt P15056, D594G); experiment: BRAF HiBiT degradation assay, C-terminal HiBiT-tagged BRAF D594G overexpressed in HCT-116 BRAF−/− cells (clone 63), Nano-Glo HiBiT Lytic assay
T2 construct: Horizon Discovery (HCT-116 BRAF−/− cells); host or cells: HCT-116 BRAF−/− cells, clone 63, lentiviral transduction
Summary of the method: as §1

BRAF G466V = biological target: T3, BRAF G466V (Homo sapiens, UniProt P15056, G466V); experiment: BRAF HiBiT degradation assay, C-terminal HiBiT-tagged BRAF G466V overexpressed in HCT-116 BRAF−/− cells (clone 8), Nano-Glo HiBiT Lytic assay
T3 construct: Horizon Discovery (HCT-116 BRAF−/− cells); host or cells: HCT-116 BRAF−/− cells, clone 8, lentiviral transduction
Summary of the method: as §1

BRAF V600E = biological target: T4, BRAF V600E (Homo sapiens, UniProt P15056, V600E); experiment: BRAF HiBiT degradation assay, C-terminal HiBiT-tagged BRAF V600E A375 cells (clone 1F10), Nano-Glo HiBiT Lytic assay; settings: for Dmax: A-375
T4 construct: endogenous C-terminal HiBiT fusion tag on BRAF V600E allele; endogenous in cells; host or cells: A375 clone 1F10 (CRISPR-Cas9 knock-in of the HiBiT tag; parental A375 from ATCC)
Summary of the method: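 A375 cells (clone 1F10, endogenous C-terminal HiBiT on BRAF V600E) were seeded at 10,000 cells/well, grown 24 h, then dosed in duplicate with an 11-point series from 1 μM to 0.01 nM (0.2% DMSO). Nano-Glo HiBiT lytic luminescence was normalised to DMSO and wildtype-A375 background; DC50 was read at 50% protein remaining, alongside observed Dmax.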

[1] = Class 2, BRAF G469A, DC50 at 50%: fitted conc. at Y=50
[2] = HCT-116, Class 2, BRAF G469A, percentage protein degraded at maximal compound effect relative to DMSO
[3] = BRAF D594G, DC50 at 50%: fitted conc. at Y=50
[4] = HCT-116, BRAF D594G, percentage protein degraded at maximal compound effect relative to DMSO
[5] = BRAF G466V, DC50 at 50%: fitted conc. at Y=50
[6] = HCT-116, BRAF G466V, percentage protein degraded at maximal compound effect relative to DMSO
[7] = A375 (BRAF V600E), DC50 at 50%: fitted conc. at Y=50
[8] = A375 (BRAF V600E), percentage protein degraded at maximal compound effect relative to DMSO
[9] = BRAF G469A (Class 2), HCT-116 BRAF−/− cells, DC50 at 50% degradation
[10] = BRAF G469A (Class 2), HCT-116 BRAF−/− cells, observed Dmax relative to DMSO control
[11] = BRAF D594G (Class 3), HCT-116 BRAF−/− cells, DC50 at 50% degradation
[12] = BRAF D594G (Class 3), HCT-116 BRAF−/− cells, observed Dmax relative to DMSO control
[13] = BRAF G466V (Class 3), HCT-116 BRAF−/− cells, DC50 at 50% degradation
[14] = BRAF G466V (Class 3), HCT-116 BRAF−/− cells, observed Dmax relative to DMSO control
[15] = A375 (BRAF V600E, Class 1), DC50 at 50% degradation
[16] = A375 (BRAF V600E, Class 1), observed Dmax, % protein degraded relative to DMSO control

T4 sequence (P15056 whole entry V600E, the tested form may be a part): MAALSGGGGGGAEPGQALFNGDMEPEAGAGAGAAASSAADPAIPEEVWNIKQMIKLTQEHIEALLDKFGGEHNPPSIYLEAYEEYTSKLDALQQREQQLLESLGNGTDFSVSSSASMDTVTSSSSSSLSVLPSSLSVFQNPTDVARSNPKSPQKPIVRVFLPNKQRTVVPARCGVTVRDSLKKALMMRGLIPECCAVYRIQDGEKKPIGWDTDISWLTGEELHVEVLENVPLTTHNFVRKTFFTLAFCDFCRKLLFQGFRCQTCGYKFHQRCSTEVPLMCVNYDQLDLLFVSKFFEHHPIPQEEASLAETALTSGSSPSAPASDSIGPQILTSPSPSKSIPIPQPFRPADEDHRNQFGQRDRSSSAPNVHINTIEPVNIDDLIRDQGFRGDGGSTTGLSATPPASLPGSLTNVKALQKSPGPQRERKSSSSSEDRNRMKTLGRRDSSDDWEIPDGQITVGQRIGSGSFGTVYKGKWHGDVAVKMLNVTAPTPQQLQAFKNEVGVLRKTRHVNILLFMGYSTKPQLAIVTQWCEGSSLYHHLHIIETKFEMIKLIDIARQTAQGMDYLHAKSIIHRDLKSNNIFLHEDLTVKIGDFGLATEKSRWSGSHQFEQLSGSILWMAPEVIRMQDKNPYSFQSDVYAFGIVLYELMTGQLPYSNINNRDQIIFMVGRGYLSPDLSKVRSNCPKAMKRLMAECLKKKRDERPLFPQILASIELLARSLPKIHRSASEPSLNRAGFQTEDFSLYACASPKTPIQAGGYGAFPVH
T2 sequence (P15056 whole entry D594G): as the sequence (P15056 whole entry V600E, the tested form may be a part) above, with D594G, E600V counted along it
T3 sequence (P15056 whole entry G466V): as the sequence (P15056 whole entry V600E, the tested form may be a part) above, with G466V, E600V counted along it
T1 sequence (P15056 whole entry G469A): as the sequence (P15056 whole entry V600E, the tested form may be a part) above, with G469A, E600V counted along it

| DC50 (BRAF G469A; [1]) | Dmax (BRAF G469A; [2]) | DC50 (BRAF D594G; [3]) | Dmax (BRAF D594G; [4]) | DC50 (BRAF G466V; [5]) | Dmax (BRAF G466V; [6]) | DC50 (BRAF V600E; [7]) | Dmax (BRAF V600E; [8]) | DC50 (BRAF G469A; [9]) | Dmax (BRAF G469A; [10]) | DC50 (BRAF D594G; [11]) | Dmax (BRAF D594G; [12]) | DC50 (BRAF G466V; [13]) | Dmax (BRAF G466V; [14]) | DC50 (BRAF V600E; [15]) | Dmax (BRAF V600E; [16]) | Compound |
| --- | --- | --- | --- | --- | --- | --- | --- | --- | --- | --- | --- | --- | --- | --- | --- | --- |
| > 500 nM | 30 to 70% | < 10 nM | 30 to 70% | < 10 nM | > 70% | < 10 nM | > 70% |  |  |  |  |  |  |  |  | CCCS(=O)(=O)Nc1cccc(-c2nc(C3CCN(C(=O)C4CCN(C(=O)CC5CCN(c6ccc(C7CCC(=O)NC7=O)cn6)CC5)CC4)CC3)sc2-c2ccnc(N)n2)c1F (racemic) [Compound 203, Rac-N-{3-[5-(2-aminopyrimidin-4-yl)-2-(1-{1-[2-(1-{5-[(3R)-2,6-dioxopiperidin-3-yl]pyridin-2-yl}piperidin-4-yl)acetyl]piperidine-4-carbonyl}piperidin-4-yl)-1,3-thiazol-4-yl]-2-fluorophenyl}propane-1-sulfonamide] |
| > 500 nM | 30 to 70% | > 500 nM | 30 to 70% | > 500 nM | 30 to 70% | < 10 nM | > 70% |  |  |  |  |  |  |  |  | CCCS(=O)(=O)Nc1cccc(-c2nc(C3CCN(C(=O)C4CCN(CC5CCN(c6ccc([C@H]7CCC(=O)NC7=O)cc6)CC5)CC4)CC3)sc2-c2ccnc(NC)n2)c1F [Compound 204, N-{3-[2-(1-{1-[(1-{4-[(3R)-2,6-dioxopiperidin-3-yl]phenyl}piperidin-4-yl)methyl]piperidine-4-carbonyl}piperidin-4-yl)-5-[2-(methylamino)pyrimidin-4-yl]-1,3-thiazol-4-yl]-2-fluorophenyl}propane-1-sulfonamide] |
| > 500 nM | 30 to 70% | < 10 nM | 30 to 70% | 10 to 50 nM | 30 to 70% | < 10 nM | > 70% |  |  |  |  |  |  |  |  | CCCS(=O)(=O)Nc1cccc(-c2nc(C3(C)CCN(C(=O)CN4CCC5(CC4)CN(c4ccc6c(c4)C(=O)N(C4CCC(=O)NC4=O)C6=O)C5)CC3)sc2-c2ccnc(N)n2)c1F (racemic) [Compound 238, Rac-N-{3-[5-(2-aminopyrimidin-4-yl)-2-{1-[2-(2-{2-[(3R)-2,6-dioxopiperidin-3-yl]-1,3-dioxo-2,3-dihydro-1H-isoindol-5-yl}-2,7-diazaspiro[3.5]nonan-7-yl)acetyl]-4-methylpiperidin-4-yl}-1,3-thiazol-4-yl]-2-fluorophenyl}propane-1-sulfonamide] |
| > 500 nM | < 30% | > 500 nM | 30 to 70% | 10 to 50 nM | 30 to 70% | 10 to 50 nM | > 70% |  |  |  |  |  |  |  |  | CCCS(=O)(=O)Nc1cccc(-c2cn(-c3ccc(C4CCN(CC5CCN(c6ccc([C@@H]7CCC(=O)NC7=O)cc6)CC5)CC4)cc3)nc2-c2ccncc2)c1F [Compound 15, N-{3-[1-(4-{1-[(1-{4-[(3S)-2,6-dioxopiperidin-3-yl]phenyl}piperidin-4-yl)methyl]piperidin-4-yl}phenyl)-3-(pyridin-4-yl)-1H-pyrazol-4-yl]-2-fluorophenyl}propane-1-sulfonamide] |
| > 500 nM | < 30% | > 500 nM | 30 to 70% | 10 to 50 nM | 30 to 70% | 10 to 50 nM | > 70% |  |  |  |  |  |  |  |  | CCCS(=O)(=O)Nc1cccc(-c2cn(-c3ccc(C4CCN(CC5CCN(c6ccc(C7CCC(=O)NC7=O)c(F)c6)CC5)CC4)cc3)nc2-c2ccncc2)c1F (racemic) [Compound 23, Rac-N-{3-[1-(4-{1-[(1-{4-[(3R)-2,6-dioxopiperidin-3-yl]-3-fluorophenyl}piperidin-4-yl)methyl]piperidin-4-yl}phenyl)-3-(pyridin-4-yl)-1H-pyrazol-4-yl]-2-fluorophenyl}propane-1-sulfonamide] |
|  |  |  |  |  |  |  |  | < 10 nM | > 70% | < 10 nM | > 70% | < 10 nM | > 70% | < 10 nM | > 70% | O=C1CCC(c2ccc(N3CCC(CN4CCN(c5cnc(-n6cc(-c7cc(Cl)cc(NS(=O)(=O)N8CCCC8)c7F)c(-c7ccncc7)n6)nc5)CC4)CC3)nc2)C(=O)N1 (racemic) [Compound 359, Rac-N-{5-chloro-3-[1-(5-{4-[(1-{5-[(3R)-2,6-dioxopiperidin-3-yl]pyridin-2-yl}piperidin-4-yl)methyl]piperazin-1-yl}pyrimidin-2-yl)-3-(pyridin-4-yl)-1H-pyrazol-4-yl]-2-fluorophenyl}pyrrolidine-1-sulfonamide] |
| > 500 nM | < 30% | > 500 nM | 30 to 70% | 50 to 500 nM | 30 to 70% | 10 to 50 nM | > 70% |  |  |  |  |  |  |  |  | CCCS(=O)(=O)Nc1cccc(-c2cn(-c3ccc(C4CCN(CC5CCN(c6ccc(C7CCC(=O)NC7=O)cc6F)CC5)CC4)cc3)nc2-c2ccncc2)c1F (racemic) [Compound 22, Rac-N-{3-[1-(4-{1-[(1-{4-[(3R)-2,6-dioxopiperidin-3-yl]-2-fluorophenyl}piperidin-4-yl)methyl]piperidin-4-yl}phenyl)-3-(pyridin-4-yl)-1H-pyrazol-4-yl]-2-fluorophenyl}propane-1-sulfonamide] |
|  |  |  |  |  |  |  |  | > 500 nM | 30 to 70% | > 500 nM | 30 to 70% | 10 to 50 nM | 30 to 70% | 10 to 50 nM | > 70% | CCCS(=O)(=O)Nc1cccc(-c2cn(-c3ccc(N4CCN(CC5CCN(c6ccc([C@H]7CCC(=O)NC7=O)cc6)CC5)[C@H](C)C4)cc3)nc2-c2ccncc2)c1F [Compound 378, N-[3-(1-{4-[(3R)-4-[(1-{4-[(3R)-2,6-dioxopiperidin-3-yl]phenyl}piperidin-4-yl)methyl]-3-methylpiperazin-1-yl]phenyl}-3-(pyridin-4-yl)-1H-pyrazol-4-yl)-2-fluorophenyl]propane-1-sulfonamide] |
| > 500 nM | 30 to 70% | < 10 nM | 30 to 70% | > 500 nM | 30 to 70% | < 10 nM | > 70% |  |  |  |  |  |  |  |  | CCCS(=O)(=O)Nc1cccc(-c2nc(C3CCN(C(=O)C4CCN(C(=O)C5CCN(c6ccc(C7CCC(=O)NC7=O)cn6)CC5)CC4)CC3)sc2-c2ccnc(NC3CC3)n2)c1F (racemic) [Compound 198, Rac-N-(3-{5-[2-(cyclopropylamino)pyrimidin-4-yl]-2-{1-[1-(1-{5-[(3R)-2,6-dioxopiperidin-3-yl]pyridin-2-yl}piperidine-4-carbonyl)piperidine-4-carbonyl]piperidin-4-yl}-1,3-thiazol-4-yl}-2-fluorophenyl)propane-1-sulfonamide] |
|  |  |  |  |  |  |  |  | 10 to 50 nM | 30 to 70% | < 10 nM | > 70% | 10 to 50 nM | > 70% | < 10 nM | > 70% | CCN(C)S(=O)(=O)Nc1cc(Cl)cc(-c2cn(-c3ccc(N4CCN(CC5CCN(c6ccc([C@H]7CCC(=O)NC7=O)cn6)CC5)CC4)cn3)nc2-c2ccncc2)c1F [Compound 314, (3R)-3-(6-{4-[(4-{6-[4-(5-chloro-3-{[ethyl(methyl)sulfamoyl]amino}-2-fluorophenyl)-3-(pyridin-4-yl)-1H-pyrazol-1-yl]pyridin-3-yl}piperazin-1-yl)methyl]piperidin-1-yl}pyridin-3-yl)piperidine-2,6-dione] |
